row,melting point [°C],Structure (SMILES)
1,274 to 278,Cc1cc(F)c(Nc2ncnc3cc(O)ccc23)cc1O
2,190 to 191,O=C(O)c1cn(-c2cccc(OC(F)F)c2)cn1
3,223 to 224,Cn1nc(-c2ccccc2)cc1C(=O)Nc1ccc(OCC(C)(C)C)c(C#N)c1
4,101 to 102,CCCCC(=O)Nc1cccc(C(=O)OC)c1
5,158 to 160,CP(C)(=O)CNc1cc(Oc2ccc(C(F)(F)F)cn2)ccc1[N+](=O)[O-]
6,159 to 160,COc1cc(Cl)c(NS(C)(=O)=O)cc1C(=O)NCC1CCCO1 (stereo unspecified)
7,96 to 98,CCN1c2ncc(COc3cccc(C(N)=O)c3)cc2C(=O)N(C)c2ccc(Cl)nc21
8,153,CCn1c(C)nc2cc(CN3CCN(C(c4ccccc4)c4ccccc4)CC3)ccc21
9,188,Cc1cccc(NC(=O)NCC(=O)N(CC(=O)O)c2ccccc2)c1
10,231 to 233,O=P(O)(CCCNCc1cc(Cl)cc(Cl)c1)CC1CCCCC1
11,80 to 82,CC(=O)c1ccc2c(c1)CCC(=O)CO2
12,164 to 166,COc1ccc(-c2cnc3cc4cnn(CCOC(C)=O)c4cc3n2)cc1F
13,145 to 147,O=C(NCCCCOc1cc(CN2CCCCC2)ccn1)c1cn[nH]c1
14,148 to 149,CCOC(=O)c1cnn2c(-c3ccccc3C(F)(F)F)ccnc12
15,138 to 139,CCc1ccc(NC(=O)NCC2(c3ccccc3)CCCCC2)cc1
16,250 to 252,Cc1cc(C)c2nc(C3CC3)n(Cc3ccc(C4(C(=O)O)Cc5ccccc5C4)s3)c2n1
17,226 to 228,O=C(Nc1cccc2ccnnc12)c1c(Cl)cccc1Cl

row,melting point [°C],Structure (SMILES)
1,138 to 140,COc1ccc(/C=C(\C#N)c2ccc(O)cc2)cc1OC1CCCC1
2,103 to 105,CCOC(=O)c1cc(-c2ccccn2)[nH]n1
3,182 to 185,O=[N+]([O-])c1ccc(CN2CCCC(O)c3ncccc32)cc1 (stereo unspecified)
4,160 to 161,COCc1cnc2c(NC(=O)c3c(Cl)cccc3Cl)cccc2c1COC
5,101 to 102,CC(C)(O)CCCCc1ccc2ccccc2c1O
6,80 to 82,O=C(Nc1ccc2[nH]ccc2c1)C(=O)N1CCC(Cc2ccc(F)cc2)CC1
7,147 to 149,Cc1ccc2c3c(c(=O)oc2c1)CN(Cc1ccc(Cl)cc1)CC3
8,155,CCCCCCCCCCCCCCCCCCOC(=O)CCC1CCCCC1(c1ccc(O)c(C(C)(C)C)c1)c1ccc(O)c(C(C)(C)C)c1 (stereo unspecified)
9,> 300,O=C(O)c1ccc2c(c1)S(=O)(=O)N=C(n1ccnc1)N2
10,123 to 125,COc1cccc(N(CCN2CCC(C(=O)c3ccc(F)cc3)CC2)C(=O)c2cccc([N+](=O)[O-])c2)c1
11,242 to 243,CCC(CC)(CCC#N)C(NC(=O)c1ccc(Cl)cc1)Nc1c(Nc2cccnc2)c(=O)c1=O (stereo unspecified)
12,95 to 97,CC(=O)Oc1ccc(C(=O)NCCO[N+](=O)[O-])cc1
13,100 to 101,O=C(NCc1ccccc1)NOCC(O)CN1CCCCC1 (stereo unspecified)
14,84 to 85,COC(=O)CCCCCCNC(=O)C(CSC(C)=O)Cc1ccccc1 (stereo unspecified)
15,69 to 73,Clc1ccc2ccc(COc3ccc(CN4CCc5cccc(CCc6nnn[nH]6)c54)cc3)nc2c1
16,150 to 153,C#Cc1cccc(Nc2c(C#N)cnc3ccc(OCCOC)c(OCCOC)c23)c1

# Continued, compound first:
row,Structure (SMILES),melting point [°C]
1,C[C@H](NC(=O)OC(C)(C)C)[C@@H]1CCN(c2nc3c(cc2F)c(=O)[nH]c(=O)n3C2CC2)C1,249 to 251
2,CC(C)Cn1nc(-c2ccccc2)c(-c2ccccc2)c1CO,154
3,CC1(C)CCC(C)(C)c2cc3[nH]c(-c4ccc(C(=O)O)cc4)cc3cc21,294 to 296
4,CNc1ccc(-n2nc3c4ccccc4[nH]cc-3c2=O)cc1,302 to 304
5,CC(C)(C)OC(=O)N1C(=O)C2(COc3cc4c(cc32)OCCO4)c2ccccc21 (stereo unspecified),171 to 172
6,O=c1[nH]ccn1-c1ccc(F)cc1F,192 to 194
7,Cn1nc(C(F)(F)F)c(CSC2=NOC(C)(CCl)C2)c1O (stereo unspecified),111 to 112
8,O=c1c2c[nH]c3ccccc3c-2nn1-c1ccccc1,326 to 328
9,CC1(C)Oc2cc3nonc3cc2C(N2CCCC2=O)C1O (stereo unspecified),242 to 244
10,CCCCCCCCCCCCc1ccccc1C(Sc1nc(C)c(C(=O)O)n1C)C(=O)O (stereo unspecified),104 to 106
11,Cc1cc(NC(=O)CN(CC(=O)O)CC(=O)O)ccc1Br,206 to 209
12,CC(=O)c1c(N)c(-c2ccccc2)n(C)c1C,124 to 126
13,CCOC(=O)C(=O)Nc1nc2ccccc2s1,185 to 186
14,ON=C(Cl)c1ccc(C(Cl)=NO)cc1,178 to 180
15,CCC(=O)c1ccc(-c2ccc(=O)[nH]n2)cc1,202 to 205
16,COc1ccc2oc3ccc(C=O)cc3c(=O)c2c1,167 to 169
17,CCN1C(=O)CN(c2ccccc2)C1=S,122
18,Nc1n[nH]c2ccc(Br)cc12,165 to 175
19,Cc1nnsc1C(=O)Nc1ccc(-n2nc(C(F)(F)F)cc2C2CC2)c(F)c1,105 to 112
20,CONS(=O)(=O)c1cccc(Cl)c1,72 to 74.5
21,CC(O)=C(C#N)C(=O)Cc1ccc(Cl)cc1,50 to 53
22,COc1ccc(C(=O)Nc2ccccc2)cc1Nc1ccccc1,194 to 195
23,CC(=O)N[C@H]1c2cc(C#N)ccc2OC(C)(C)[C@H]1O (relative stereo),193 to 194

row,Structure (SMILES),melting point [°C]
1,O=C1NC(CC(=O)C2CC2)c2cccn2-c2sccc21 (stereo unspecified),200
2,C[C@H]1CCCC(C)(C)[C@@H]1[C@H](O)c1ccc(OC(F)(F)F)cc1,29 to 33
3,Cc1oc(-c2ccccc2)nc1COc1cccc2cc(NS(=O)(=O)C(F)(F)F)ccc12,192 to 194
4,CCOC(=O)c1cn2c(C)nnc2cc1Nc1ccc(I)cc1F,201 to 204
5,O=c1cc(O)c2cccnc2n1-c1ccccc1,311 to 313
6,CSc1nnc(-c2ccnc(Nc3cccc(C(F)(F)F)c3)c2)o1,189 to 190
7,CC1CN(c2ccc(Cl)cc2)N=C1NC(=O)C(F)(F)F (stereo unspecified),181 to 183
8,COc1ccccc1C(=O)CC(=O)c1ccccc1O,80 to 84
9,CC(=O)OCC1CCc2c(C3=C(c4cn(C)c5ccccc45)C(=O)OC3=O)c3ccccc3n2C1 (stereo unspecified),190 to 193
10,CCN(CC)C(=O)Cc1c(-c2ccc(Br)cc2)nc2c(C)cc(C)nn12,171 to 175
11,O=c1[nH]c2cc(C(F)(F)F)c(-n3ccnc3)cc2n2c(=S)[nH]nc12,> 300
12,O=C1CCc2c1cccc2C(=O)c1ccc(Cl)cc1,146
13,COC(=O)c1ccc2c3cccc4cccc(c5ccc(C(=O)N(C)c6ccc(C(C)(C)C)cc6)c1c25)c43,272
14,COc1ccc2[nH]c3c(c2c1)C[C@@]1(C)C(=O)N(CCn2ccnc2)C(=O)N1[C@@H]3c1cccc(O)c1 (racemic),321 to 324
15,Oc1ccc(CCNCC(O)c2ccc(OCc3ccccc3)cc2)cc1OCc1ccccc1 (stereo unspecified),124 to 125
16,COc1ccc(C(=O)Nc2ccc(Cl)c(Cl)c2)cc1NCc1cccs1,178 to 180
17,O=C1c2ccccc2C(=O)N1CC(O)c1cnc(-c2ccccc2)nc1-c1ccccc1 (stereo unspecified),149 to 159
18,COc1ccccc1CN[C@H]1CCCN(C)[C@H]1c1ccccc1 (relative stereo),58
19,CC1C(Cl)(Cl)C1(C)c1ccc(O)cc1 (stereo unspecified),79 to 82
20,COc1ncc(S(C)(=O)=O)cc1Br,148 to 150
21,O=C(NC(c1ccccc1)c1ccccc1)NS(=O)(=O)Cl,80 to 88
22,O=[N+]([O-])c1ccc(O)cc1Br,130 to 135
23,CC1NC(=O)NN=C1c1ccc2c(c1)CCC(=O)N2C (stereo unspecified),240 to 242

row,Structure (SMILES),melting point [°C]
1,C[C@@H]1S[C@@H](C(=O)Nc2ccc(CC3OC(=O)NC3=O)cc2)Cc2cc3c(cc2C1=O)OCO3 (stereo partly specified),164 to 166
2,Cc1c(NC(=O)CC(C)(C)C)cc2c(c1C)O[C@@H](C)[C@H]2c1ccc(C(C)C)cc1 (relative stereo),94 to 95
3,CCc1nc2ccccc2c(N)c1C(C)=O,145 to 148
4,CC1=C(c2ccc(Cl)cc2)n2ncc3c(=O)[nH]c(=S)n(c32)C1,283 to 285
5,CN1CC(C#N)C(=O)c2cc3cc(F)c(F)cc3nc21 (stereo unspecified),144
6,CCOC(C)=C1SC(=S)N(c2ccc(Cl)cc2)C1=O,168 to 171
7,COc1ccc(S(=O)(=O)Nc2ccccc2NC(C)=O)cc1,160 to 161
8,Cc1cccc(C2=NN=C(c3ccccc3Cc3ccccc3)NN2)c1,162 to 163
9,CC(C)(CO)CCCCC(O)CCCCC(C)(C)CO,72 to 74
10,CC(c1oc2ccccc2c(=O)c1-c1cccc(F)c1)n1nc(-c2ccc(N(C)C)cc2)c2c(N)ncnc21 (stereo unspecified),214 to 217
11,O=P(O)(O)Cc1ccccc1C(F)(F)F,190 to 192
12,CCOC(=O)C1=C(C)NC(C)=C2C(=O)Nc3ccccc3C21 (stereo unspecified),236 to 238
13,COc1ccc(-c2nc(COc3cccc(N)c3)c(C)o2)cc1,132 to 134
14,O=c1[nH]c2ccccc2cc1-c1csc(N(Cc2ccccc2)S(=O)(=O)c2ccccc2)n1,228 to 232
15,CC(C)(C)OC(=O)OCC(COC(=O)OC(C)(C)C)OCn1cnc2c(=O)[nH]c(N)nc21,192 to 193
16,CNc1c(C(=O)OC)cccc1[N+](=O)[O-],138 to 140
17,COC(=O)C(C)(C)Cc1c(SC(C)(C)C)c2cc(OCc3ccc4cc(F)c(F)cc4n3)ccc2n1Cc1ccc(Cl)cc1,171 to 173
18,N#Cc1c(Cl)cc(Cn2nnc(C(N)=O)c2N)cc1Cl,238 to 240
19,COc1ccc(Cl)cc1C1(O)C(=O)Nc2cc(C(F)(F)F)ccc21 (stereo unspecified),207 to 210
20,CC(C)n1nc(-c2sc(NC=O)nc2-c2ccccc2)ccc1=O,232 to 234
21,CC1(C)CC(C(O)CNc2nc(NCc3ccccc3)nc(NCC(O)C3CC(C)(C)NC(C)(C)C3)n2)CC(C)(C)N1 (stereo unspecified),88
22,N#CC(C#N)=C1CC(=C(C#N)C#N)c2ccccc21,224 to 228

# — a melting point compilation (Tetko et al.; mined from patent text by program, amines drawn as free bases though some values may be those of a salt)
